Changes are numbered by the printed parent chain.
What was measured:
Assay type in all cases: biochemical
[1] = target: T1, Zea mays EPSPS variant Zm-H6 (868-H6) with D196V (H6-D196V) (Zea mays, UniProt O24566, A1R/A3W/A415G/A71Q/D195V/D401G/E301S/E390G/G101A/I207L/K83R/L97C/T278A/T360S/T440Q/V437R); test: Rapid two-rate method for (kcat/KM)*KI, H6-D196V; settings: [E] 0.07 uM, [Gly] 1000 uM
T1 construct: shuffled variant 868-H6 plus D196V; E. coli BL21(DE3), Ni-NTA purified
T1 sequence (O24566 with tags, fused parts or gaps A1R/A3W/A71Q/K83R/L97C/G101A/D195V/I207L/T278A/E301S/T360S/E390G/D401G/A415G/V437R/T440Q): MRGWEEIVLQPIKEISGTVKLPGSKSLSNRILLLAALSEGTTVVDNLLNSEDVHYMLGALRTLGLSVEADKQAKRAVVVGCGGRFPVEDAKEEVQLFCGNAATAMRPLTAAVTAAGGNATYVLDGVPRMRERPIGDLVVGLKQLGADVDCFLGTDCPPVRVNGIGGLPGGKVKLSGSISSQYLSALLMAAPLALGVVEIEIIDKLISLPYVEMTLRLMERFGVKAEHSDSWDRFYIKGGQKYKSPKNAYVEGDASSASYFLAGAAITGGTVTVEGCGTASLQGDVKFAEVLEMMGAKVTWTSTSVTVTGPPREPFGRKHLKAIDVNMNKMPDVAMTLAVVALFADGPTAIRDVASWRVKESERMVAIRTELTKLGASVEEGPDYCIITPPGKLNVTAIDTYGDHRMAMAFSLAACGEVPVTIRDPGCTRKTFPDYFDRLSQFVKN
Source text: (§1) There are several practical considerations for accurately estimating (kcat/KM)*KI with the rapid method. […] 2) The inhibitor concentration must be adjusted so as to obtain a degree of inhibition that minimally amplifies the error in the term v0-vi in Equation 3. If inhibition is too little, v0-vi will be small, and the error in the multiplier vi×v0/(v0-vi) will be large. […] 3) Substrate concentration should be set at the approximate KM of the parental variant(s), subject to the sensitivity of the assay. High substrate concentration obscures sensitivity to the inhibitor and reduces stringency for capturing improvements in KM. Depending on the necessity for speed, there exists opportunity for customizing enzyme and inhibitor concentrations. […] The rapid method was repeated for those and obtained data that correlated better with data obtained by substrate saturation analysis. For screening purposes however, that correlation step is not necessary. Conditions can be set so that variants with a pre-determined minimal fitness level are accurately quantified.
(§2) In Table 15, parameters above the heavy line for the rapid method were obtained under standard conditions. For variants shown below the heavy line, the rapid analysis was repeated with enzyme or glyphosate concentrations adjusted as needed to generate sufficient signal within the limits for linear initial rates.

[2] = target: T2, Zea mays EPSPS variant Zm-H6 (868-H6) with A76V (H6-A76V) (Zea mays, UniProt O24566, A1R/A3W/A415G/A71Q/A75V/D401G/E301S/E390G/G101A/I207L/K83R/L97C/T278A/T360S/T440Q/V437R); test: Rapid two-rate method for (kcat/KM)*KI, H6-A76V; settings: [E] 0.07 uM, [Gly] 1000 uM
T2 sequence (O24566 with tags, fused parts or gaps A1R/A3W/A71Q/A75V/K83R/L97C/G101A/I207L/T278A/E301S/T360S/E390G/D401G/A415G/V437R/T440Q): T1 sequence (O24566 with tags, fused parts or gaps A1R/A3W/A71Q/K83R/L97C/G101A/D195V/I207L/T278A/E301S/T360S/E390G/D401G/A415G/V437R/T440Q) with A76V, V196D
Source text: as §1, §2

[3] = target: Zea mays EPSPS variant 278V (Zea mays, UniProt O24566, T277V); test: EPSPS reaction rate with or without 10 uM glyphosate, 278V; settings: pH 7; read-out: Reaction rate with 10 μM glyph, % no glyph; further: 50 µM PEP and S3P
Sequence of Zea mays EPSPS variant 278V (O24566 entry or part of it T277V): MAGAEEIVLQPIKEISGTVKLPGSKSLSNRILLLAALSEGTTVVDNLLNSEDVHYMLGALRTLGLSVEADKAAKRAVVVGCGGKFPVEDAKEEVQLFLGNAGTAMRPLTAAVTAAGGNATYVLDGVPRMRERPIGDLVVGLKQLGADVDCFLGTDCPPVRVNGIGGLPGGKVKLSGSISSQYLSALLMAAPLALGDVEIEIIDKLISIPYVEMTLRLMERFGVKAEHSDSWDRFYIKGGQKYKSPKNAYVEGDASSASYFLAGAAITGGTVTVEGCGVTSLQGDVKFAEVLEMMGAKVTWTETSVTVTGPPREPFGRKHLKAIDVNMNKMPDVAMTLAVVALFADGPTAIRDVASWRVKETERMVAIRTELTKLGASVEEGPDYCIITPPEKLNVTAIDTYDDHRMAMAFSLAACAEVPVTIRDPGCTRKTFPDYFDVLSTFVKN

[4] = target: Sorghum halepense EPSPS with 868-H6 mutations, SEQ ID NO:12 (Sorghum halepense, UniProt H6T5X2, A1R/A3W/A415G/D401G/E301S/E390G/G101A/I207L/K83R/L97C/T278A/T360S/T440Q/V437R/V71Q); test: EPSPS substrate saturation kinetics, sorghum H6
Sequence of Sorghum halepense EPSPS with 868-H6 mutations, SEQ ID NO:12 (H6T5X2 entry or part of it with the stated changes): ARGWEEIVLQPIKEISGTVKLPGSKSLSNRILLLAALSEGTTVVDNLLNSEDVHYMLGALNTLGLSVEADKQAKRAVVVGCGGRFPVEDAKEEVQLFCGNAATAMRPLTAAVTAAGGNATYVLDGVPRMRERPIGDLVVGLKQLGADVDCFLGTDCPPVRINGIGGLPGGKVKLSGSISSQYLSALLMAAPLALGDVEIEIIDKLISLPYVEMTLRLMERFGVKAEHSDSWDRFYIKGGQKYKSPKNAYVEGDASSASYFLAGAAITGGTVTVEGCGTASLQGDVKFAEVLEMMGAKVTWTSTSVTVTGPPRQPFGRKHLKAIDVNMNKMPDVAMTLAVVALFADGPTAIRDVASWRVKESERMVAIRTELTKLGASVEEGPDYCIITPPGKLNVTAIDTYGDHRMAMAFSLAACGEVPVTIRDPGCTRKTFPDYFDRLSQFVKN
Procedure: EPSPS activity was determined by quantifying the phosphate generated from the EPSPS reaction. Release of inorganic phosphate was coupled to reaction with 2-amino-6-mercapto-7-methylpurine ribonucleoside, catalyzed by purine-nucleoside phosphorylase (M R Webb, Proc. Natl. Acad. Sci. 89:4884-4887, 1992). The absorbance change that occurs was monitored at 360 nm, where the extinction is 11,200 M^−1 cm^−1, with a Spectramax plate reader (Molecular Devices). To determine kinetic parameters, the varied substrate was present at seven concentrations (the eighth being the blank, containing no substrate) ranging from 4 to 400 uM and the unvaried substrate present at saturation. […] Reactions were monitored with a Spectramax plate reader. […] KI was then calculated from the following form of the Michaelis-Menten equation for competitive inhibition: KI=KM[I]/(KM app−KM) KM approximates the dissociation constant of the enzyme-substrate complex while kcat is the rate of conversion of substrate to product when the substrate concentration is saturating. kcat/KM is a widely accepted parameter for catalytic efficiency when substrate concentration is low (˜KM). […] The parameter kcat/KM×KI is used to quantify both catalytic efficiency and insensitivity and thus the overall fitness of the enzyme. […]

Question: How did the “(kcat/KM)*KI” value [1] turn out when `O=C(O)CNCP(=O)(O)O` [glyphosate, N-phosphonomethylglycine] was run?
Answer: 1704

Question: And the “(kcat/KM)*KI” value [2]?
Answer: 2418

Question: And the activity at 10 µM [3]?
Answer: 3.25%

Question: What about the Ki [4] of the same molecule?
Answer: 783 µM

Question: What about the “(kcat/KM)*KI” value ([4]; PEP as substrate, glyphosate as inhibitor) of the same molecule?
Answer: 8080
